Reference: paper PMC11613437, “Prioritization of Eleven-Nineteen-Leukemia Inhibitors as Orally Available Drug Candidates for Acute Myeloid Leukemia” (Journal of Medicinal Chemistry, 2024)
Like-named read-outs stand apart in the source and are kept apart here.

Legend:
[1] = In vitro metabolic stability assay in HLM; assay type: in vitro ADME, human; conditions: for CLint scaled at 1 h: read-out: Liver Microsome CLint, pred
Procedure: At 0, 5, 15, 30, 45, and 60 min, 200 μL acetonitrile (with the internal standard diclofenac as 10 μg/mL) was added to terminate the reaction, the remaining compound was analyzed by HPLC-MS/MS.

[2] = Log D at pH 7.4 (chromatographic procedure); assay type: physicochemical; conditions: n-octanol / aqueous buffer pH 7.4, pH 7.4
Procedure: Log D at 7.4, which is a partition coefficient between n-octanol and aqueous buffer pH 7.4 of the compounds was measured on the chromatographic procedure whose condition was developed based on a published method.[35]

MOLM-13-Luc cells = assay: Antitumor analysis in MOLM-13-Luc xenografted NSG mice; assay type: in vivo
Source text: Animal studies were approved by the Texas A&M’s Institutional Animal Care and Use Committees. The 5 week-old female NSG mice (NOD.Cg-PrkdcscidIl2rgtm1Wjl/SzJ, Jackson Laboratory #005557) were ordered and kept under pathogen-free conditions for 1 week with free access to food and water after arrival for acclimation. Tumor models in these mice were then built by engrafting 1 × 10^6 MOLM-13-Luc cells (BPS Bioscience, 78372) through tail vein injection. Tumors were allowed to grow for 6 days, and then applied for treatment by oral gavage daily (day 0 was the beginning of treatment). Dosage of 200 or 400 mg/kg (vehicle of 5% DMSO, 45% PEG400, 2.5% Tween 80, and 47.5% water) was applied. Tumor growth was evaluated by bioluminescent imaging (BLI) using an IVIS In Vivo Imaging System by intraperitoneal injection of 150 mg/kg D-Luciferin potassium salt (MedChemExpress, HY-12591B). Their body weights were recorded every 2–3 days. Surviving mice were counted every day and the mortality was calculated. No animal was excluded from any of the analyses. The investigators were not blinded to allocation during experiments and outcome assessment.

MOLM-13 cells = assay: Anti-proliferation assay, MOLM-13; assay type: cell-based; conditions: Homo sapiens, MOLM-13, 336 h, approximately 2 weeks, read-out: inhibition of MOLM-13 cell proliferation
Procedure: Cell proliferation assays were carried out in a 96-well tissue culture plate at 2 × 10^4 cells/well for all cell lines except in 200 μL with a compound added as 1:1000 dilution of DMSO stocks in triplicate. Culture density was determined every 3–4 days using the countess automated cell counter, after which 2 × 10^4 live cells were reseeded in fresh media and compound. The cumulative cell count was achieved by back calculation.

[3] = Cell toxicity assay (CCK-8), MV4-11; assay type: cell-based; conditions: human, MV4-11 cells, 8 day treatment, n = 3; read-out: CC50 MV4-11 (Cellular IC50, 8-days incubation)
Procedure: (§1) Approximately 1 × 10^4 JURKAT, MOLM-13, MV4-11 and HEK293T cells in RPMI 1640 (no phenol red) (100 μL) were added to a 96-well plate and treated with DMSO or a compound at indicated concentrations for 72 h or 8 days. Cell viability was measured using the CCK-8 kit (Abcam, ab228554) according to the manufacturer’s instructions.

[4] = system: HOXA9, HOXA10, MEIS1, MYB and MYC; assay: qRT-PCR of ENL target genes; assay type: cell-based; conditions: MOLM-13 and MV4-11 cells, 72 h, concentrations as low as 1.0 μM
Procedure: Total RNA was extracted using the RNeasy plus kit (Qiagen, 74034) and reverse-transcribed using an iScript cDNA synthesis kit (Bio-Rad, 1708890). Quantitative real-time PCR (qRT-PCR) analyses were performed as described previously using PowerUp SYBR Green PCR Master Mix (Thermo Fisher, A25742) and the Bio-Rad CFX96 real-time PCR detection system. Gene expressions were calculated following normalization to β2-microglobulin (B2M) levels using the comparative Ct (cycle threshold) method. The primer pairs are as follows. HOXA9: forward 5′-GTATAG-[…]-3′, reverse 5′-[…]-3′. MEIS1: forward 5′-[…]-3′, reverse 5′ […]-AGCAAG-3′. MYB: forward 5′-[…]-3′, reverse 5′-[…]-3′, MYC: forward 5′-[…]-AGGT-3′, reverse 5′-TTT-[…]-3′. B2M: forward 5′-[…]-3′ reverse 5′-[…]-3′.

[5] = Cell toxicity assay (CCK-8), Jurkat; assay type: cell-based; conditions: human, Jurkat cells; for IC50 at 8 days: 8 day treatment, n = 3, read-out: CC50 Jurkat (Cellular IC50, 8-days incubation)
Procedure: as §1

MOLM-13 and MV4-11 cells = assay: Cell cycle analysis; assay type: cell-based; conditions: 72 h treatment
Procedure: For cell cycle analysis, 5 × 10^6 cells were cultured at 2 mL/well in a 6-well plate treated in a ratio of 1:1000 with compound stocks in DMSO or 1:1000 with DMSO in triplicate. Cell cycle staining was performed by using a cell cycle analysis kit (Abcam, ab287852) and treated according to the protocol provided. The signal was analyzed by flow cytometry and the cytometry results were analyzed by CytExpert software.

PK analysis in mice = assay type: in vivo; conditions: plasma; for half-life at 24 h: read-out: t1/2 (h), PO (converted)
Procedure: Male CD-1 mice were used in the PK study. A compound was dissolved in a mixed solution containing 75% PEG300 and 25% D5W (5% dextrose in distilled water) or another solution containing 0.5% methyl cellulose and 0.5% Tween 80 in water at indicated dosage for i.v. and p.o. administrations, respectively. Three mice were used for each administration. Blood samples were taken from a vein at different time points up to 24 h after dosing, collected in tubes coated with an anticoagulant, and centrifuged at 1.5 × 10^4 g for 5 min to obtain plasma samples. Acetonitrile-containing internal standard (Labetalol, 100 ng/mL) was added to the plasma to precipitate proteins. The samples were subjected to vortex mixing for 10 min and then centrifugation at 4 °C for 15 min at 3220g. Then clear supernatants were analyzed by HPLC-MS/MS.

[6] = human, human liver microsomes, pH 7.4, HLM 0.5 mg/mL, NADPH 1 mM, mean ± SD, n = 3
[7] = human, human liver microsomes, pH 7.4, HLM 0.5 mg/mL, NADPH 1 mM, mean ± SD, n = 3, read-out: Liver Microsome t1/2
[8] = mouse, male CD-1 mice, PO 20 mg/kg, read-out: AUC0–inf, oral
[9] = mouse, male CD-1 mice, PO 20 mg/kg

Compound: CC(C)[C@H]1CCN1Cc1cc2cnc(NC(=O)c3ccc4nncn4c3)cc2[nH]1 [SR-C-107 (R), (R)-N-(2-((2-Isopropylazetidin-1-yl)methyl)-1H-pyrrolo[3,2-c]pyridin-6-yl)-[1,2,4]triazolo[4,3-a]pyridine-6-carboxamide]
- Liver Microsome t1/2 ([1]; HLM 0.5 mg/mL, NADPH 1 mM, mean ± SD, n = 3): 6.9717 ± 0.6597 h
- CLint scaled at 1 h [1, 6]: 4.18 mL/min/kg
- half-life [1, 7]: 6.97 h
- chromatographic logD [2]: 0.97
- tumor growth inhibition (TGI) (MOLM-13-Luc cells; 200 mg/kg PO QD, after 8 days of treatment): 49.5%
- tumor growth inhibition (TGI) (MOLM-13-Luc cells; 200 mg/kg PO QD, day 12): 45%
- median survival time (MOLM-13-Luc cells; 200 mg/kg PO QD, vehicle 10): 15 days post-treatment
- inhibition at 1 µM (MOLM-13 cells): ~90%
- IC50 at 8 days [3]: 0.81 ± 0.15 µM
- expression of ENL target genes [4]: effectively suppress the expression of these genes
- IC50 at 8 days [5]: > 64 µM
- cell cycle: G1 phase (MOLM-13 and MV4-11 cells): increase in the G1 phase
- Cmax (PK analysis in mice; male, CD-1, mouse, mice, PO 20 mg/kg, corresponds to 285 ng/mL, read-out: oral Cmax expressed as effective concentration): 750 nM
- AUC(0-inf) (PK analysis in mice; [8]): 808 ng·h/mL
- Cmax (PK analysis in mice; mouse, male CD-1 mice, PO 20 mg/kg, read-out: Cmax, oral): 285 ng/mL
- half-life at 24 h (PK analysis in mice; [9]): 1.41 h

Compound: CC(C)C1CCN1Cc1ccc(CNC(=O)c2ccc3nncn3c2)cc1 (centres unmarked) [inhibitor 13]
- CLint scaled at 1 h [1, 6]: 4.09 mL/min/kg
- half-life at 1 h [1, 7]: 7.11 ± 0.663 h
- parent compound remaining after 60 min incubation in HLM ([1]; in the presence of NADPH, 60 min): over 90%
- chromatographic logD [2]: 0.31
- tumor reduction (MOLM-13-Luc cells; 200 mg/kg PO QD): no noticeable tumor reduction
- increase in median survival (MOLM-13-Luc cells; 400 mg/kg PO QD vs control): 33.3%
- tumor growth inhibition (TGI) (MOLM-13-Luc cells; 400 mg/kg PO QD, after 13 days of treatment, vs control): ~45%
- median survival (MOLM-13-Luc cells; 400 mg/kg PO QD, control 15): 20 post-treatment days
- inhibition at 1 µM (MOLM-13 cells): 30%
- inhibition at 10 µM (MOLM-13 cells; 10 μM): 85%
- IC50 at 8 days [3]: 6.72 µM
- expression of ENL target genes [4]: effectively suppress the expression of these genes
- CC50 at 72 h ([5]; 72 h treatment (superscript a)): > 64 µM
- IC50 at 8 days [5]: 22 ± 1.79 µM
- cell cycle: G1 phase (MOLM-13 and MV4-11 cells): increase in the G1 phase
- half-life (PK analysis in mice; mouse, male CD-1 mice, IV 20 mg/kg, read-out: t1/2, IV (converted)): 1.05 ± 0.03 h
- Cmax at 24 h (PK analysis in mice; [9]): 2080 ng/mL
- AUC(0-inf) at 24 h (PK analysis in mice; [8]): 5140 ng·h/mL
- half-life at 24 h (PK analysis in mice; [9]): 0.84 h
